Assay results published in patent US10414775B2 (Merck Sharp & Dohme Corp., priority 2016, dated 2019).
pIC50: −log10 of the molar value.

Target: T1, Human CYP8B1 (Homo sapiens, UniProt Q9UNU6)
T1 construct: tissue Xenotech; host or cells: human liver microsomes
T1 sequence (Q9UNU6 1-501): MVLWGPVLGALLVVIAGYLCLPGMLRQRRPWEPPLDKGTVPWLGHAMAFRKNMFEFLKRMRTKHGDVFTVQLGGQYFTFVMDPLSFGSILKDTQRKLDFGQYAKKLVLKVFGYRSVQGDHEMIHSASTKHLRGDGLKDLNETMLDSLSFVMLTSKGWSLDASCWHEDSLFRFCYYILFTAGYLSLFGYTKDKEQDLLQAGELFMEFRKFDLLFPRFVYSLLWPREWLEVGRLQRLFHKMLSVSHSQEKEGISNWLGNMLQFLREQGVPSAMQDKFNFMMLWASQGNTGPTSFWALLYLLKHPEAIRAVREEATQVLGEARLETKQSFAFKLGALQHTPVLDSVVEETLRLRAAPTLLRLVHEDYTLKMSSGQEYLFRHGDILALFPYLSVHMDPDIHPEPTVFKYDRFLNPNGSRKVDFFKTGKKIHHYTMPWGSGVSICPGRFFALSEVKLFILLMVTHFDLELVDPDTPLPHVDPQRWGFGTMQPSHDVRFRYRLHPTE
Assay: Human Cyp8B1 Liver Microsome Assay
Format: biochemical
Conditions: human liver microsomes; substrate 7α-hydroxy-4-cholesten-3-one, NADPH; 30 min pre-incubation, 45 min reaction; RapidFire MS readout
Outline: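 Human liver microsomes (65 μg/ml, 0.1 M phosphate pH 7.4) preincubated 30 min at room temperature with inhibitor (1.25% DMSO final), then reacted 45 min with 7α-hydroxy-4-cholesten-3-one and NADPH. 7α,12α-dihydroxy product quantified by RapidFire ESI+ MRM against d7 internal standard; IC50 from four-parameter logistic fit.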

Row | pIC50 | SMILES
1 | 9.40 | C[C@@H]1CN(c2c(Cl)cnc3c2CCN(c2ccccn2)C3)CC[C@@H]1C(=O)N1CCn2c(nnc2C(F)(F)F)C1 [Example 62, ((3S,4S)-1-(3-chloro-7-(pyridin-2-yl)-5,6,7,8-tetrahydro-1,7-naphthyridin-4-yl)-3-methylpiperidin-4-yl)(3-(trifluoromethyl)-5,6-dihydro-[1,2,4]triazolo[4,3-a]pyrazin-7(8H)-yl)methanone]
2 | 6.92 | C[C@@H]1CN(c2ccnc3c2CCN(CC(F)(F)F)C3)CC[C@@H]1C(=O)N1CCn2c(nnc2C(F)(F)F)C1 [Example 63, ((3S,4S)-3-methyl-1-(7-(2,2,2-trifluoroethyl)-5,6,7,8-tetrahydro-1,7-naphthyridin-4-yl)piperidin-4-yl)(3-(trifluoromethyl)-5,6-dihydro-[1,2,4]triazolo[4,3-a]pyrazin-7(8H)-yl)methanone]
3 | 7.31 | C[C@@H]1CN(c2ccnc3c2CCN(C(=O)OC2(C)CC2)C3)CC[C@@H]1C(=O)N1CCn2c(nnc2C(F)(F)F)C1 [Example 64, 1-methylcyclopropyl 4-((3 S,4S)-3-methyl-4-(3-(trifluoromethyl)-5,6,7,8-tetrahydro-[1,2,4]triazolo[4,3-a]pyrazine-7-carbonyl)piperidin-1-yl)-5,6-dihydro-1,7-naphthyridine-7(8H)-carboxylate]
4 | 8.76 | C[C@@H]1CN(c2c(Cl)cnc3c2CCN(C(=O)C2CC2)C3)CC[C@@H]1C(=O)N1CCn2c(nnc2C(F)(F)F)C1 [Example 65, (3-chloro-4-((3S,4S)-3-methyl-4-(3-(trifluoromethyl)-5,6,7,8-tetrahydro-[1,2,4]triazolo[4,3-a]pyrazine-7-carbonyl)piperidin-1-yl)-5,6-dihydro-1,7-naphthyridin-7(8H)-yl)(cyclopropyl)methanone]
5 | 8.35 | CC(C)NC(=O)c1ccc2c(N3CC[C@H](C(=O)N4CCn5c(nnc5C(F)(F)F)C4)[C@H](C)C3)ccnc2c1 [Example 66, N-isopropyl-4-((3 S,4S)-3-methyl-4-(3-(trifluoromethyl)-5,6,7,8-tetrahydro-[1,2,4]triazolo[4,3-a]pyrazine-7-carbonyl)piperidin-1-yl)quinoline-7-carboxamide]
6 | 7.63 | C[C@@H]1CN(c2ccnc3cc(C(=O)NCC4CC4)ccc23)CC[C@@H]1C(=O)N1CCn2c(nnc2C(F)(F)F)C1 [Example 67, N-(cyclopropylmethyl)-4-((3 S,4S)-3-methyl-4-(3-(trifluoromethyl)-5,6,7,8-tetrahydro-[1,2,4]triazolo[4,3-a]pyrazine-7-carbonyl)piperidin-1-yl)quinoline-7-carboxamide]
7 | 7.68 | C[C@@H]1CN(c2ccnc3cc(C(=O)NC45CC(C4)C5)ccc23)CC[C@@H]1C(=O)N1CCn2c(nnc2C(F)(F)F)C1 [Example 68, N-(bicyclo[1.1.1]pentan-1-yl)-4-((3S,4S)-3-methyl-4-(3-(trifluoromethyl)-5,6,7,8-tetrahydro-[1,2,4]triazolo [4,3-a]pyrazine-7-carbonyl)piperidin-1-yl) quinoline-7-carboxamide]
8 | 6.43 | CCNC(=O)c1ccc2c(N3CC[C@H](C(=O)N4CCn5c(nnc5C(F)(F)F)C4)[C@H](C)C3)ccnc2c1 [Example 69, N-ethyl-4-((3S,4S)-3-methyl-4-(3-(trifluoromethyl)-5,6,7,8-tetrahydro-[1,2,4]triazolo [4,3-a]pyrazine-7-carbonyl)piperidin-1-yl) quinoline-7-carboxamide]
9 | 9.15 | CCNC(=O)c1ccc2c(N3CC[C@H](C(=O)N4CCn5c(nnc5C(F)(F)F)C4)[C@H](C)C3)c(Cl)cnc2c1 [Example 70, 3-chloro-N-ethyl-4-((3 S,4S)-3-methyl-4-(3-(trifluoromethyl)-5,6,7,8-tetrahydro-[1,2,4]triazolo[4,3-a]pyrazine-7-carbonyl)piperidin-1-yl)quinoline-7-carboxamide]
10 | 6.52 | C[C@@H]1CN(c2ccnc3cc(S(C)(=O)=O)ccc23)CC[C@@H]1C(=O)N1CCn2c(nnc2C(F)(F)F)C1 [Example 71, ((3 S,4S)-3-methyl-1-(7-(methylsulfonyl)quinolin-4-yl)piperidin-4-yl)(3-(trifluoromethyl)-5,6-dihydro-[1,2,4]triazolo[4,3-a]pyrazin-7(8H)-yl)methanone]
11 | 8.92 | C[C@@H]1CN(c2c(Cl)cnc3cc(S(C)(=O)=O)ccc23)CC[C@@H]1C(=O)N1CCn2c(nnc2C(F)(F)F)C1 [Example 72, ((3S,4S)-1-(3-chloro-7-(methylsulfonyl)quinolin-4-yl)-3-methylpiperidin-4-yl)(3-(trifluoromethyl)-5,6-dihydro-[1,2,4]triazolo[4,3-a]pyrazin-7(8H)-yl)methanone]
12 | 9.40 | C[C@@H]1CN(c2ccnc3cc(-c4ncco4)ccc23)CC[C@@H]1C(=O)N1CCn2c(nnc2C(F)(F)F)C1 [Example 73, ((3S,4S)-3-methyl-1-(7-(oxazol-2-yl)quinolin-4-yl)piperidin-4-yl)(3-(trifluoromethyl)-5,6-dihydro-[1,2,4]triazolo[4,3-a]pyrazin-7(8H)-yl)methanone]
13 | 7.38 | C[C@@H]1CN(c2ccnc3cc(-n4cncn4)ccc23)CC[C@@H]1C(=O)N1CCn2c(nnc2C(F)(F)F)C1 [Example 74, ((3S,4S)-1-(7-(1H-1,2,4-triazol-1-yl)quinolin-4-yl)-3-methylpiperidin-4-yl)(3-(trifluoromethyl)-5,6-dihydro-[1,2,4]triazolo[4,3-a]pyrazin-7(8H)-yl)methanone]
14 | 8.85 | Cc1coc(-c2ccc3c(N4CC[C@H](C(=O)N5CCn6c(nnc6C(F)(F)F)C5)[C@H](C)C4)ccnc3c2)n1 [Example 75, ((3S,4S)-3-methyl-1-(7-(4-methyloxazol-2-yl)quinolin-4-yl)piperidin-4-yl)(3-(trifluoromethyl)-5,6-dihydro-[1,2,4]triazolo[4,3-a]pyrazin-7(8H)-yl)methanone]
15 | 9.15 | C[C@@H]1CN(c2c(Cl)cnc3cc(-c4ncco4)ccc23)CC[C@@H]1C(=O)N1CCn2c(nnc2C(F)(F)F)C1 [Example 76, ((3S,4S)-1-(3-chloro-7-(oxazol-2-yl)quinolin-4-yl)-3-methylpiperidin-4-yl)(3-(trifluoromethyl)-5,6-dihydro-[1,2,4]triazolo[4,3-a]pyrazin-7(8H)-yl)methanone]
16 | 9.70 | C[C@@H]1CN(c2c(Cl)cnc3cc(-c4ncco4)ccc23)CC[C@@H]1C(=O)N1CCc2c(noc2C(F)(F)F)C1 [Example 77, ((3S,4S)-1-(3-chloro-7-(oxazol-2-yl)quinolin-4-yl)-3-methylpiperidin-4-yl)(3-(trifluoromethyl)-4,5-dihydroisoxazolo [3,4-c]pyridin-6(7H)-yl)methanone]
17 | 9.30 | C[C@@H]1CN(c2c(Cl)cnc3cc(-c4ncco4)ccc23)CC[C@@H]1C(=O)N1CCn2c(nnc2C2CC2)C1 [Example 78, ((3S,4S)-1-(3-chloro-7-(oxazol-2-yl)quinolin-4-yl)-3-methylpiperidin-4-yl) (3-cyclopropyl-5,6-dihydro-[1,2,4]triazolo[4,3-a]pyrazin-7(8H)-yl)methanone]
18 | 9.15 | C[C@@H]1CN(c2ccnc3cc(-c4ccncc4)ccc23)CC[C@@H]1C(=O)N1CCn2c(nnc2C(F)(F)F)C1 [Example 79, ((3S,4S)-3-methyl-1-(7-(pyridin-4-yl)quinolin-4-yl)piperidin-4-yl)(3-(trifluoromethyl)-5,6-dihydro-[1,2,4]triazolo[4,3-a]pyrazin-7(8H)-yl)methanone]
19 | 9.40 | C[C@@H]1CN(c2ccnc3cc(-c4ccccc4)ccc23)CC[C@@H]1C(=O)N1CCn2c(nnc2C(F)(F)F)C1 [Example 80]
